Holding throughout (experiment): growth of human tumour cells (NCI), 48 h
Assay [1] concerns SW-620 colon.
The subject of assay [2] is OVCAR-8 ovarian.
Assay [3] concerns A498 renal.
The test system of assay [4] is MDA-MB-231 breast.
The subject of assay [5] is MDA-MB-435.
Assay [6] has as its system HCC-2998 colon.
Assay [7] has as its system SF-295 CNS.
Assay [8] concerns OVCAR-3 ovarian.
Assay [9] concerns OVCAR-5 ovarian.
Assay [10] deals with MCF7 breast.
Assay [11] deals with TK-10 renal.
Assay [12] concerns SF-268 CNS.
The subject of assay [13] is NCI/ADR-RES ovarian.
Assay [14] has as its system K-562 leukemia.

The values below come from PubChem BioAssay (NCI).

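Values below derive from 48-hour exposures of cells grown in 96-well plates, with endpoints linearly interpolated between the two concentrations bracketing the appropriate inhibition level. TGI is the concentration that stops growth completely.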 A value given as a limit tells only on which side of the number the result lay.

As for `O=C(Nc1ccc(S(=O)(=O)Nc2ncccn2)cc1)c1c2ccccc2nc2ccccc12`, the TGI in assay [1], in assay [2], in assay [3], in [4], in assay [5] and in assay [6] was more than 100 µM each time. For the same compound, the TGI in [7], in [8], in [9], in assay [10], in assay [11] and in [12] was more than 100 µM each time. The TGI in assay [13] and in assay [14] was more than 100 µM throughout.
As for `COC(=O)CCC(C)[C@H]1CCC2C3C(C[C@H](OC(C)=O)[C@@]21C)[C@@]1(C)CCC2(C[C@H]1C[C@H]3OC(C)=O)OOC1(CCCCC1)OO2` (some centres undefined), the TGI in assay [1], in assay [2], in [3], in [4], in [5] and in assay [6] was more than 100 µM each time. Besides, the TGI is 80.4 µM in assay [7]; more than 100 µM in assay [8]; more than 100 µM in [9]; more than 100 µM in [10]; more than 100 µM in assay [11]; more than 100 µM in [12]. Moreover, the TGI in assay [13] and in assay [14] was more than 100 µM in each case.
On to `CCCc1cc(-c2ccc(-c3cc(CCC)c(C=O)[nH]3)s2)[nH]c1C=O`, for which the TGI in assay [1] was more than 100 µM; in [2], more than 100 µM; in assay [3] it was more than 100 µM; in assay [4], more than 100 µM; in assay [5], more than 100 µM; in assay [6] it was 22.9 µM. Also, the TGI was more than 92.4 µM in [7]; more than 100 µM in assay [8]; 58.7 µM in assay [9]; more than 100 µM in assay [10]; more than 100 µM in [11]; more than 100 µM in assay [12]. Further, the TGI in [13] and in [14] was more than 100 µM in each case.
Regarding `CCCCCCC(=O)OC[n+]1cccc(-c2c(COC(=O)NC(C)C)c(COC(=O)NC(C)C)c3n2CCC3)c1`, the TGI in assay [1] is more than 100 µM; in assay [2], more than 100 µM; in [3], 44.9 µM; in assay [4] it was more than 100 µM; in assay [5] it was more than 100 µM; in assay [6], more than 100 µM. The TGI in assay [7] is more than 100 µM; in assay [8] it was more than 100 µM; in assay [9], more than 100 µM; in [10] it was more than 100 µM; in assay [11] it was more than 100 µM; in assay [12], 69.9 µM. The TGI in [13] and in [14] was more than 100 µM throughout.
Consider `COc1ccc(N2C(=O)C3c4[nH]c5ccc(OCc6ccccc6)cc5c4C4CCC(C(C)C)CC4C3C2=O)cc1` (centres undefined), for which the TGI in assay [1] is more than 100 µM; in assay [2], more than 100 µM; in [3] it was 25.4 µM; in [4] it was 37.9 µM; in [5], more than 100 µM; in assay [6] it was more than 100 µM. Besides, the TGI was 29.3 µM in [7]; more than 100 µM in assay [8]; more than 100 µM in assay [9]; more than 100 µM in [10]; more than 80.4 µM in assay [11]; more than 100 µM in assay [12]. Moreover, the TGI is more than 100 µM in assay [13] and more than 68.3 µM in assay [14].
For the compound `CC1(C)CC2(C)ON=C(c3ccccc3)N2c2ccccc2N1` (centres undefined), the TGI was more than 100 µM in assay [1]; more than 100 µM in assay [2]; 54.4 µM in assay [3]; 28.7 µM in [4]; 39.8 µM in assay [5]; more than 100 µM in assay [6]. The TGI was more than 100 µM in assay [7]; 33.7 µM in assay [8]; more than 100 µM in [9]; 47 µM in [10]; 91.8 µM in assay [11]; 48.2 µM in assay [12]. For the same compound, the TGI was found to be 74.6 µM in assay [13] and 52.3 µM in [14].
For `O=c1oc2c(ccc3c(O)cccc32)c2c1CCCC2`, the TGI is more than 100 µM in assay [1]; more than 100 µM in [2]; 80.8 µM in assay [3]; 47.1 µM in [4]; more than 100 µM in assay [5]; more than 100 µM in assay [6]. Also, the TGI was 58 µM in assay [7]; more than 100 µM in assay [8]; more than 100 µM in [9]; more than 100 µM in [10]; more than 100 µM in assay [11]; 40.8 µM in assay [12]. For the same compound, the TGI in assay [13] and in assay [14] was more than 100 µM throughout.
On to `COc1nc(C)nc2c1ncn2Cc1ccccc1`, for which the TGI in assay [1], in assay [2], in [3], in assay [4], in [5] and in [6] was more than 100 µM throughout. The TGI in [7], in assay [8], in assay [9], in assay [10], in assay [11] and in [12] was more than 100 µM each time. Moreover, the TGI in assay [13] and in assay [14] was more than 100 µM throughout.
For the compound `Cc1ncc(CO)c(C=NCCCCCCN=Cc2c(CO)cnc(C)c2O)c1O`, the TGI in assay [1], in assay [2], in [3], in assay [4], in assay [5] and in assay [6] was more than 100 µM throughout. For the same compound, the TGI in assay [7], in assay [8], in [9], in [10], in assay [11] and in assay [12] was more than 100 µM throughout. Moreover, the TGI in [13] and in assay [14] was more than 100 µM in each case.
Regarding `COC(=O)CCC1(O)C=CC(=O)C=C1`, the TGI in assay [1], in assay [2], in [3], in assay [4], in [5] and in assay [6] was more than 100 µM each time. Moreover, the TGI is more than 100 µM in [7]; 59.5 µM in assay [8]; more than 100 µM in assay [9]; more than 100 µM in [10]; more than 100 µM in [11]; more than 100 µM in [12]. In addition, the TGI in assay [13] and in [14] was more than 100 µM throughout.
As to `COc1cccc(C(=O)N[C@@H]2[C@H](O)[C@@H](CO)O[C@H]2n2cnc3c(N)ncnc32)c1`, the TGI in assay [1], in assay [2], in assay [3], in [4], in assay [5] and in [6] was more than 100 µM each time. The TGI in [7], in assay [8], in [9], in [10], in [11] and in assay [12] was more than 100 µM throughout. The TGI in assay [13] and in [14] was more than 100 µM each time.
For the compound `Cc1[nH]c2ccccc2c1C1=CC(=O)N(c2ccccc2)C1=O`, the TGI is 37.8 µM in assay [1]; 50 µM in assay [2]; 60.3 µM in [3]; more than 100 µM in assay [4]; more than 100 µM in assay [5]; 7.38 µM in assay [6]. Moreover, the TGI in assay [7] was more than 100 µM; in assay [8], more than 100 µM; in assay [9] it was more than 100 µM; in [10], 48.1 µM; in [11] it was 60.7 µM; in assay [12] it was more than 100 µM. The TGI in assay [13] is more than 100 µM; in assay [14], 29.8 µM.
Take `CCOC(=O)c1ccc(Nc2cnc3ccc(C(F)(F)F)cc3n2)cc1`: the TGI in assay [1] was found to be 31.7 µM; in assay [2], 26 µM; in assay [3], 33.9 µM; in assay [4], 43.7 µM; in [5], 61.8 µM; in assay [6], 26.7 µM. The TGI in assay [7] came to 50.6 µM; in assay [8], 44.8 µM; in assay [9], 74.7 µM; in [10], 67.1 µM; in [11], 26.9 µM; in [12], 34 µM. In addition, the TGI worked out at 30.8 µM in [13] and 53.7 µM in assay [14].
Turning to `O=C(O)CCc1nc2cc3ccccc3cc2[nH]c1=O`, the TGI in assay [1], in [2], in assay [3], in assay [4], in assay [5] and in assay [6] was more than 100 µM each time. The TGI in assay [7], in [8], in [9], in [10], in [11] and in assay [12] was more than 100 µM throughout. For the same compound, the TGI in assay [13] and in [14] was more than 100 µM each time.
On to `CN1CCCC(C(=O)OCC(=O)C2(O)CCC3C4CCC5=CC(=O)CCC5(C)C4C(O)CC32C)C1` (centres undefined), for which the TGI in assay [1] is more than 79.2 µM; in assay [2] it was 35.3 µM; in assay [3], 31.6 µM; in assay [4], 19.2 µM; in assay [5], 33.4 µM; in assay [6], 22.1 µM. Further, the TGI in assay [7] is 46.6 µM; in assay [8], 32.8 µM; in [9], 52.2 µM; in assay [10], more than 65.6 µM; in assay [11] it was 42.2 µM; in assay [12], 46.4 µM. Moreover, the figures for the TGI in assay [13] and in assay [14] were 55.3 µM and 28.7 µM, respectively.
Consider `Cc1cc(-c2ccc(C(=O)C(c3ccccc3)(c3ccccc3)c3ccccc3)[nH]2)on1`, for which the TGI in assay [1] was 75 µM; in [2], 42 µM; in assay [3], more than 100 µM; in assay [4] it was 49.6 µM; in assay [5], 67.7 µM; in [6] it was 25.6 µM. Besides, the TGI was 97.7 µM in assay [7]; more than 100 µM in [8]; more than 100 µM in assay [9]; more than 100 µM in assay [10]; 68.7 µM in assay [12]; 36.8 µM in assay [13]. Besides, in assay [14], the TGI is more than 100 µM.
For the compound `C/C(=N\NC(=S)Nc1ccc(Cl)cc1)c1nc2ncccc2[nH]1`, the TGI in assay [1] was 35.5 µM; in assay [3], 20.2 µM; in assay [4] it was more than 100 µM; in [5], 15.1 µM; in assay [6], 21.1 µM; in assay [7] it was 13.5 µM. For the same compound, the TGI in assay [8] was 10.5 µM; in [9], 21.3 µM; in [10], 11.2 µM; in [11], 5.12 µM; in assay [12], more than 100 µM; in assay [13], 53.4 µM. This compound displayed a TGI in [14] of 44.2 µM.
Regarding `Cc1cn2c(/C=C3/C(=O)Nc4ccccc43)c(C)nc2s1`, the TGI in assay [1] was 77.3 µM; in assay [2], more than 100 µM; in assay [3], more than 100 µM; in [4], 43.4 µM; in assay [5], 0.619 µM; in assay [6] it was 19.5 µM. The TGI is more than 100 µM in assay [7]; more than 100 µM in [9]; more than 100 µM in assay [10]; more than 100 µM in assay [11]; 78.1 µM in [12]; more than 100 µM in [13]. In assay [14], this compound yielded a TGI of 17.2 µM.
As for `COC1C(OC(N)=O)C(O)C(Oc2ccc3c(O)c(NC(=O)c4ccc(O)c(CC=C(C)C)c4)c(=O)oc3c2C)OC1(C)C` (centres undefined), the TGI in assay [1], in [2], in [3], in assay [4], in assay [5] and in assay [6] was more than 100 µM each time. For the same compound, the TGI in assay [8], in assay [9], in [10], in assay [12], in assay [13] and in assay [14] was more than 100 µM throughout.
As to `O=[N+]([O-])c1ccc2[nH]c(O)c(N=NC(=S)Nc3ccccc3)c2c1`, the TGI in assay [1] was more than 100 µM; in assay [2], 31.8 µM; in assay [3] it was 13.2 µM; in [4] it was 24.8 µM; in assay [5], 26.9 µM; in assay [6] it was 12.4 µM. The TGI in assay [7] is 16.6 µM; in assay [8], 22.6 µM; in [9] it was 24.7 µM; in [10] it was 24.6 µM; in [11] it was 23.6 µM; in assay [13], 8.62 µM. This compound gave a TGI in assay [14] of more than 100 µM.
